In data set [1] the test system is A2780. Nature of the data set: Downregulation of Oct4 expression in human A2780 cells at IC50 concentration. Format: functional, cell-based.
Data set [2] relates to A2780. Nature of the data set: Cytotoxicity against cisplatin resistant human A2780 cells assessed as reduction in cell viability at IC50 concentration incubated for 72 hrs in presence of cisplatin by CCK-8 method. The data set is classed as functional, cell-based.
A short description of data set [3]: Cytotoxicity against non-cancerous fallopian tube ovarian cell (unknown origin). The data set is classed as toxicity, cell-based. The following applies: non-cancerous fallopian tube ovarian cells.
Data set [4] has as its system A2780. Nature of the data set: Inhibition of tumor sphere formation in human A2780 cells at IC50 concentration. The data set is classed as functional, cell-based.
Data set [5] relates to A2780. Nature of the data set: Antiproliferative activity against human A2780 cells assessed as cell viability incubated for 72 hrs by CCK8 assay. Format: functional, cell-based. The settings on record: A2780, 72 h.
Data set [6] deals with A2780. Nature of the data set: Downregulation of CD133 expression in human A2780 cells at IC50 concentration. Format: functional, cell-based.
Data set [7] concerns A2780. Nature of the data set: Induction of apoptosis in human A2780 cells assessed as increase in cytochrome C release at IC50 concentration incubated for 72 hrs by immunoblotting analysis. The data set is classed as functional, cell-based. In general terms: In western blotting, separated proteins are transferred to a membrane and probed.
Data set [8] deals with A2780. Nature of the data set: Antiproliferative activity against human A2780 cells assessed as cell viability at 50 uM incubated for 72 hrs by CCK8 assay. Format: functional. The settings on record: read-out: Activity. In general terms: Tetrazolium assays rely on reduction of a dye to a coloured formazan, in cell work by metabolically active cells.
Data set [9] has as its system A2780. Nature of the data set: Reduction in IDO1 level in human A2780 cells at IC50 concentration incubated for 72 hrs by immunoblotting analysis. Format: functional, cell-based.
The subject of data set [10] is A2780. Nature of the data set: Induction of apoptosis in human A2780 cells assessed as increase in cleaved PARP level at IC50 concentration incubated for 72 hrs by immunoblotting analysis. Format: functional, cell-based.
A short description of data set [11]: Cytotoxicity against HK-2 cells. The data set is classed as toxicity, cell-based. The following applies: human.
The test system of data set [12] is A2780. Nature of the data set: Downregulation of Sox2 expression in human A2780 cells at IC50 concentration. Format: functional, cell-based.
For data set [13], the system named is A2780. Nature of the data set: Reduction in PD-L1 expression in human A2780 cells at IC50 concentration incubated for 72 hrs by immunoblotting analysis. The data set is classed as functional, cell-based.
Data set [14] relates to A2780. Nature of the data set: Downregulation of Nanog expression in human A2780 cells at IC50 concentration. Format: functional, cell-based.
The subject of data set [15] is A2780. Nature of the data set: Induction of apoptosis in human A2780 cells assessed as increase in cleaved caspase-8 level at IC50 concentration incubated for 72 hrs by immunoblotting analysis. Format: functional, cell-based.
For data set [16], the system named is A2780. Nature of the data set: Induction of apoptosis in human A2780 cells assessed as increase in cleaved caspase-3 level at IC50 concentration incubated for 72 hrs by immunoblotting analysis. Format: functional, cell-based.
In data set [17] the test system is A2780. Nature of the data set: Inhibition of tumor sphere formation in human A2780 cells assessed as reduction in diameter of the sphere at IC50 concentration (Rvb > 200 micrometer). Format: functional.
For data set [18], the system named is A2780. Nature of the data set: Induction of apoptosis in human A2780 cells assessed as increase in mature AIF expression at IC50 concentration incubated for 72 hrs by immunoblotting analysis. Format: functional, cell-based.
For data set [19], the system named is A2780. Nature of the data set: Induction of apoptosis in human A2780 cells assessed as increase in cleaved caspase-9 level at IC50 concentration incubated for 72 hrs by immunoblotting analysis. Format: functional, cell-based.

Results on 15 compounds are retold here after ChEMBL document CHEMBL5576056, “Design, synthesis and biological evaluation of novel quinazoline derivatives as immune checkpoint inhibitors” (Bioorg Med Chem Lett, 2024).

pIC50: −log10 of the molar value. The source made the active and inactive calls. The rule behind the calls is not given here.

For the compound `O=C(Nc1ccc(Cl)cc1)C1CCN(c2ncnc3ccccc23)CC1`, the outcome in [1], in data set [2], in data set [6], in data set [7], in data set [9] and in data set [10] was Active. The result in [12], in [13], in [14], in data set [15] and in data set [16] was Active. Besides, the pIC50 in data set [3] was less than 4.30; in data set [5] it was 5.25; in data set [11], less than 4.30. Also, in data set [4], the inhibition entry is “Active”. The viability at 50 µM in [8] is 26%.
As to `Nc1nonc1C(=NO)Nc1ccc(F)c(Cl)c1`, the pIC50 in data set [3] was 4.74; in [5], 4.83; in [11] it was 4.51.
Take `COc1ccc(NC(=O)C2CCN(c3ncnc4ccccc34)CC2)c(OC)c1`: in [8], the viability at 50 µM was found to be 60%.
For the compound `COc1ccc(NC(=O)C2CCN(c3ncnc4ccccc34)CC2)cc1`, the Activity in [17] was less than 200 um. For the same compound, the pIC50 in data set [3] was less than 4.30; in [5], 5.00; in data set [11], less than 4.30. Further, the outcome in [6], in [7], in [9], in data set [18], in data set [10] and in data set [13] was Active. Also, the outcome in data set [14] and in data set [16] was Active. Further, the viability at 50 µM in data set [8] turned out to be 27%. Also, the result in data set [12] was inactive.
On to `O=C(Nc1ccccc1F)C1CCN(c2ncnc3ccccc23)CC1`, for which the viability at 50 µM in [8] is 52%.
The same measure, in the same setting: for `O=C(Nc1ccc(F)c(Cl)c1)C1CCN(c2ncnc3ccccc23)CC1` the value was 53%.
For the compound `O=C(Nc1cccc2c1OCCO2)C1CCN(c2ncnc3ccccc23)CC1`, the viability at 50 µM in data set [8] was 64%.
Same read-out and setting: in the case of `O=C(Nc1ccc(I)cc1F)C1CCN(c2ncnc3ccccc23)CC1` it was 76%.
As for `O=C(Nc1ccccc1Cl)C1CCN(c2ncnc3ccccc23)CC1`, the result in [1], in [19], in data set [6], in data set [7], in data set [9] and in [18] was Active. Also, the result in [10], in data set [12], in [13], in data set [14], in [15] and in data set [16] was Active. For the same compound, the figures for the pIC50 in data set [3], in [5] and in data set [11] were less than 4.30, 4.65 and less than 4.30, respectively. For the same compound, the inhibition entry in [4] was “Active”. Moreover, the viability at 50 µM in [8] came out at 30%.
For `O=C(Nc1ccc(Br)cc1)C1CCN(c2ncnc3ccccc23)CC1`, the result in [1], in data set [6], in data set [9], in data set [18], in [12] and in data set [13] was Active. Moreover, the outcome in data set [14] and in data set [15] was Active. Moreover, the negative-log IC50 (pIC50) in data set [3] was less than 4.30; in data set [5], 4.97; in [11], less than 4.30. Moreover, the inhibition result in data set [4] is “Active”. In data set [8], the viability at 50 µM was determined as 28%.
With `O=C(Nc1ccc(F)cc1)C1CCN(c2ncnc3ccccc23)CC1`, the viability at 50 µM in data set [8] worked out at 68%.
As to `O=C(Nc1cccc(Cl)c1)C1CCN(c2ncnc3ccccc23)CC1`, the outcome in data set [1], in [19], in data set [6], in [7], in data set [9] and in [10] was Active. For the same compound, the outcome in [12], in data set [13], in data set [14], in data set [15] and in data set [16] was Active. Also, the values for the pIC50 in data set [3], in [5] and in data set [11] were less than 4.30, 4.92 and less than 4.30, respectively. Further, the inhibition result in data set [4] is “Active”. The viability at 50 µM in [8] stood at 22%.
For the compound `O=C(Nc1cccc(F)c1)C1CCN(c2ncnc3ccccc23)CC1`, in data set [8], the viability at 50 µM amounted to 58%.
In the case of `O=C(Nc1ccccc1)C1CCN(c2ncnc3ccccc23)CC1`, the negative logarithm of the IC50 (pIC50) in [3], in [5] and in data set [11] was less than 4.30 each time. Besides, the viability at 50 µM in data set [8] amounted to 42%.
Take `O=C(Nc1ccc([N+](=O)[O-])cc1)C1CCN(c2ncnc3ccccc23)CC1`: the pIC50 in data set [3] was less than 4.30; in data set [5], 5.31; in [11] it was less than 4.30. Also, in data set [4], the inhibition entry is “Active”. For the same compound, the outcome in [6], in data set [7], in [9], in data set [18], in data set [10] and in data set [13] was Active. Besides, the outcome in data set [14] and in data set [16] was Active. Moreover, the viability at 50 µM in data set [8] was 33%. Moreover, the result in [12] was inactive.

In general, pIC50 refers to −log10 of the IC50, conventionally taken in molar units.
